# Measured values from the supplement of paper PMC10307832.
# Key:
# Experiment in all cases: relative viability (nuclei count vs DMSO), 5 days (fraction); higher = more cells survive
# [1] = compound: CC1=CC=C(C=C1)C(=O)CN2C3=C(CCCC3)SC2=N [Pifithrin_alpha] + O=C(c1cc(Cc2n[nH]c(=O)c3ccccc23)ccc1F)N1CCN(C(=O)C2CC2)CC1 [Olaparib] (partner 8 µM)
# Outline: (§1)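 Relative viability equals treated-well nuclei counts divided by vehicle-well nuclei counts. Counts came from 4× images of lung cancer cell lines grown in 1536-well plates for 5 days after pin-tool dosing on the day after seeding. Dosing used one drug alone or a fixed anchor-drug dose plus five library-drug doses (not always all listed) in √10 steps, and values are medians of duplicate plates.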
# [2] = compound: CC1=CC=C(C=C1)C(=O)CN2C3=C(CCCC3)SC2=N [Pifithrin_alpha] + C[C@]1(O)C[C@@H](c2nc(-c3ccc4ccc(-c5ccccc5)nc4c3)c3c(N)nccn32)C1 [Linsitinib] (partner 1 µM)
# Outline: as §1
# Axitinib + Dasatinib = compound: CNC(=O)c1ccccc1Sc1ccc2c(/C=C/c3ccccn3)n[nH]c2c1 [Axitinib] + Cc1nc(Nc2ncc(C(=O)Nc3c(C)cccc3Cl)s2)cc(N2CCN(CCO)CC2)n1 [Dasatinib] (partner 0.075 µM)
# Outline: as §1
# Axitinib + Alpelisib = compound: CNC(=O)c1ccccc1Sc1ccc2c(/C=C/c3ccccn3)n[nH]c2c1 [Axitinib] + Cc1nc(NC(=O)N2CCC[C@H]2C(N)=O)sc1-c1ccnc(C(C)(C)C(F)(F)F)c1 [Alpelisib] (partner 2 µM)
# Outline: as §1
Cell Line,relative viability ([1]; first compound 1 µM),relative viability ([1]; first compound 3.162 µM),relative viability ([1]; first compound 10 µM),relative viability ([1]; first compound 31.62 µM),relative viability ([1]; first compound 100 µM),relative viability ([2]; first compound 1 µM),relative viability ([2]; first compound 3.162 µM),relative viability ([2]; first compound 10 µM),relative viability ([2]; first compound 100 µM),relative viability (Axitinib + Dasatinib; first compound 0.005 µM),relative viability (Axitinib + Dasatinib; first compound 0.01581 µM),relative viability (Axitinib + Dasatinib; first compound 0.05 µM),relative viability (Axitinib + Dasatinib; first compound 0.1581 µM),relative viability (Axitinib + Dasatinib; first compound 0.5 µM),relative viability (Axitinib + Alpelisib; first compound 0.005 µM),relative viability (Axitinib + Alpelisib; first compound 0.01581 µM),relative viability (Axitinib + Alpelisib; first compound 0.05 µM),relative viability (Axitinib + Alpelisib; first compound 0.1581 µM),relative viability (Axitinib + Alpelisib; first compound 0.5 µM),relative viability ([2]; first compound 31.62 µM)
NCI-H1944,0.378,0.337,0.344,0.25,0.28,1.18,1.23,1.11,1.04,0.213,0.223,0.214,0.202,0.188,0.797,0.827,0.855,0.854,0.868,
HCC-15,0.733,0.867,0.697,0.368,0.581,0.937,0.977,0.868,0.894,0.658,0.673,0.658,0.56,0.622,0.933,0.899,0.838,0.847,0.866,0.593
NCI-H2405,,0.775,0.725,0.51,0.644,,0.869,0.867,0.776,0.203,0.202,0.232,0.214,0.199,0.854,0.847,0.854,0.877,0.849,0.804
COR-L 105,0.489,0.426,0.477,0.425,0.447,0.786,0.713,0.859,0.662,0.318,0.327,0.417,0.303,0.415,1.08,1.2,1.02,0.932,1.18,0.573
ABC-1,,0.774,0.557,0.405,0.477,0.9,0.651,0.621,0.506,0.738,0.686,0.486,,0.638,1.16,1.06,0.945,1.07,1.54,0.593
HCC-366,0.344,0.238,0.299,,0.209,0.512,0.508,0.581,0.469,0.7,0.646,0.711,0.581,0.455,0.616,0.482,0.505,0.387,0.619,
NCI-H1623,,,,,,,,,,0.574,0.477,0.559,0.528,0.506,,,,,,
NCI-H2342,0.519,0.415,0.42,0.373,0.43,,,,,0.311,0.325,0.347,0.349,0.297,,,,,,
NCI-H2085,0.807,0.778,0.796,0.523,0.685,0.829,0.934,0.768,0.859,0.237,0.22,0.216,0.247,0.199,1.05,0.85,0.979,0.866,0.947,0.797
BEN,1.01,1.13,1.01,0.562,1.01,0.991,1.11,1.01,1.29,0.293,0.264,0.314,0.365,0.263,0.993,1.04,0.928,1.04,0.908,0.929
